{
  "source": "paper PMC3319004",
  "about": "(Science Translational Medicine, 2011)",
  "key": {"R1275Q xenografts": {"system": "R1275Q xenografts", "experiment": "In vivo activity of GSK1838705A in xenografts"}, "[1]": {"system": "SH-SY5Y (F1174L) xenografts"}, "[2]": {"system": "NB1643 (R1275Q) xenografts", "experiment": "In vivo tumor growth inhibition, NB1643 xenografts", "design": "species or system CB17 scid mice"}, "NBSD (F1174L) xenografts": {"system": "NBSD (F1174L) xenografts", "experiment": "In vivo tumor growth inhibition, NBSD xenografts", "design": "species or system CB17 scid mice"}, "F1174L ALK-TKD": {"biological_target": "F1174L ALK-TKD (Homo sapiens, UniProt Q9UM73, F1174L)"}, "[3]": {"conditions": "100mg/kg/day oral gavage for 4 weeks"}},
  "data": [
    {"smiles": "CNC(=O)c1c(F)cccc1Nc1nc(Nc2cc3c(cc2OC)CCN3C(=O)CN(C)C)nc2[nH]ccc12", "note": "[GSK1838705A]", "values": [
      {"measurement": "in vivo activity in xenografts", "setting": "R1275Q xenografts", "result": "only showed significant in vivo activity against R1275Q xenografts"}
    ]},
    {"smiles": "C[C@@H](Oc1cc(-c2cnn(C3CCNCC3)c2)cnc1N)c1c(Cl)ccc(F)c1Cl", "note": "[crizotinib]", "values": [
      {"measurement": "tumor regression", "setting": "[1]; [3]", "result": "No tumor regression was observed"},
      {"measurement": "extension of time taken to reach the study endpoint (tumor volume ≥ 1.5 cm^3)", "setting": "[1]; 100mg/kg/day, average, p < 0.0001", "result": 7.7, "unit": "days"},
      {"measurement": "tumor response", "setting": "[2]; [3]", "result": "tumor regression within three weeks"},
      {"measurement": "tumor response over the fourth week of dosing", "setting": "[2]; 100mg/kg/day oral gavage, p < 0.0001", "result": "complete regression was sustained"},
      {"measurement": "tumor volume", "setting": "NBSD (F1174L) xenografts; 100mg/kg/day oral gavage for 4 weeks, p = 0.29", "result": "failed to reduce tumor volume"},
      {"measurement": "extension of time to reach the study endpoint", "setting": "NBSD (F1174L) xenografts; 100mg/kg/day, mean, p = 0.04", "result": 3.7, "unit": "days"}
    ]},
    {"smiles": "CN[C@@H]1C[C@H]2O[C@@](C)([C@@H]1OC)n1c3ccccc3c3c4c(c5c6ccccc6n2c5c31)C(=O)NC4", "note": "[staurosporine]", "values": [
      {"measurement": "in vitro inhibition of ALK-TKD, F1174L compared with R1275Q-mutated ALK-TKD", "setting": "F1174L ALK-TKD", "result": "impaired by the F1174L mutation"}
    ]}
  ]
}
